Data as given in PubChem BioAssay AID256 (DTP/NCI, 2004).
Values joined by “and” are separate entries in the source; they are usually repeats but may differ in a detail not shown here. Equal entries are not always repeated. Inconclusive results and toxic doses are left out.

System: CD2F1 mice, L1210 leukemia ip, survival T/C
Assay: NCI In Vivo Anticancer Drug Screen. Data for tumor model L1210 Leukemia (intraperitoneal) in CD2F1 (CDF1) mice
Details: higher = longer survival
Outline: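 Tumor-bearing mice (transplanted tumor) were split into treated and vehicle control groups, and the measured endpoint of each treated group was divided by that of its vehicle controls.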

## S=c1nc[nH]c2nc[nH]c12
endpoint: mean survival time, dose: 8.0 mg/kg/injection, schedule: Q03HX024 (ip), vehicle: alkali diluted with water
  T/C: 155 % of control
endpoint: mean survival time, dose: 9.38 mg/kg/injection, schedule: Q01DX009 (ip), vehicle: alkali diluted with saline
  T/C: 119 % of control
endpoint: mean survival time, dose: 10.0 mg/kg/injection, schedule: Q01DX005 (ip), vehicle: alkali diluted with saline
  T/C: 113 % of control
endpoint: mean survival time, dose: 10.0 mg/kg/injection, schedule: Q01DX005 (ip), vehicle: alkali diluted with water
  T/C: 98 % of control
endpoint: mean survival time, dose: 16.0 mg/kg/injection, schedule: Q03HX024 (ip), vehicle: alkali diluted with water
  T/C: 160 % of control
endpoint: mean survival time, dose: 18.8 mg/kg/injection, schedule: Q01DX009 (ip), vehicle: alkali diluted with saline
  T/C: 113 % of control
endpoint: mean survival time, dose: 19.4 mg/kg/injection, schedule: Q04DX003 (ip), vehicle: alkali diluted with saline
  T/C: 101 % of control
endpoint: mean survival time, dose: 20.0 mg/kg/injection, schedule: Q01DX007 (ip), vehicle: saline
  T/C: 116 % of control
endpoint: mean survival time, dose: 20.0 mg/kg/injection, schedule: Q01DX009 (ip), vehicle: alkali diluted with water
  T/C: 114 % of control
endpoint: mean survival time, dose: 20.0 mg/kg/injection, schedule: Q01DX009 (ip), vehicle: other
  T/C: 121 % of control
endpoint: mean survival time, dose: 20.0 mg/kg/injection, schedule: Q01DX009 (ip), vehicle: saline
  T/C: 120 % of control
endpoint: mean survival time, dose: 20.0 mg/kg/injection, schedule: Q04DX002 (ip), vehicle: saline
  T/C: 120 % of control
endpoint: mean survival time, dose: 28.13 mg/kg/injection, schedule: Q04DX003 (ip), vehicle: alkali diluted with saline
  T/C: 95 % of control
endpoint: mean survival time, dose: 30.0 mg/kg/injection, schedule: Q## X006 (ip), vehicle: saline
  T/C: 101 % of control
endpoint: mean survival time, dose: 37.5 mg/kg/injection, schedule: Q01DX009 (ip), vehicle: alkali diluted with saline
  T/C: 122 % of control
endpoint: mean survival time, dose: 40.0 mg/kg/injection, schedule: Q01DX005 (ip), vehicle: saline
  T/C: 150 % of control
endpoint: mean survival time, dose: 40.0 mg/kg/injection, schedule: Q01DX005 (ip), vehicle: sodium bicarbonate
  T/C: 116 % of control
endpoint: mean survival time, dose: 40.0 mg/kg/injection, schedule: Q01DX009 (ip), vehicle: other
  T/C: 166 % of control and 167 % of control
endpoint: mean survival time, dose: 40.0 mg/kg/injection, schedule: Q03DX003 (ip), vehicle: saline
  T/C: 113 % of control
endpoint: mean survival time, dose: 40.0 mg/kg/injection, schedule: Q04DX003 (ip), vehicle: saline
  T/C: 116 % of control
endpoint: mean survival time, dose: 60.0 mg/kg/injection, schedule: Q## X009 (ip), vehicle: saline
  T/C: 122 % of control
endpoint: mean survival time, dose: 66.0 mg/kg/injection, schedule: Q04DX003 (ip), vehicle: saline
  T/C: 163 % of control
endpoint: mean survival time, dose: 75.0 mg/kg/injection, schedule: Q01DX009 (ip), vehicle: alkali diluted with saline
  T/C: 156 % of control and 170 % of control
endpoint: mean survival time, dose: 80.0 mg/kg/injection, schedule: Q01DX001 (ip), vehicle: alkali diluted with water
  T/C: 120 % of control
endpoint: mean survival time, dose: 80.0 mg/kg/injection, schedule: Q01DX005 (ip), vehicle: saline with Tween-80
  T/C: 168 % of control
endpoint: mean survival time, dose: 80.0 mg/kg/injection, schedule: Q01DX005 (ip), vehicle: saline
  T/C: 170 % of control and 172 % of control
endpoint: mean survival time, dose: 80.0 mg/kg/injection, schedule: Q01DX005 (ip), vehicle: sodium bicarbonate
  T/C: 157 % of control
endpoint: mean survival time, dose: 80.0 mg/kg/injection, schedule: Q01DX007 (ip), vehicle: saline
  T/C: 158 % of control
endpoint: mean survival time, dose: 80.0 mg/kg/injection, schedule: Q01DX009 (ip), vehicle: alkali diluted with saline
  T/C: 150 % of control
endpoint: mean survival time, dose: 80.0 mg/kg/injection, schedule: Q01DX009 (ip), vehicle: alkali diluted with water
  T/C: 150 % of control and 158 % of control
endpoint: mean survival time, dose: 80.0 mg/kg/injection, schedule: Q01DX009 (ip), vehicle: other
  T/C: 156 % of control
endpoint: mean survival time, dose: 80.0 mg/kg/injection, schedule: Q01DX009 (ip), vehicle: saline
  T/C: 156 % of control
endpoint: mean survival time, dose: 80.0 mg/kg/injection, schedule: Q04DX002 (ip), vehicle: saline
  T/C: 150 % of control
endpoint: mean survival time, dose: 90.0 mg/kg/injection, schedule: Q## X002 (ip), vehicle: saline
  T/C: 153 % of control
endpoint: mean survival time, dose: 125.0 mg/kg/injection, schedule: Q01DX001 (ip), vehicle: alkali diluted with saline
  T/C: 120 % of control
endpoint: mean survival time, dose: 150.0 mg/kg/injection, schedule: Q01DX009 (ip), vehicle: alkali diluted with saline
  T/C: 113 % of control and 95 % of control
endpoint: mean survival time, dose: 150.0 mg/kg/injection, schedule: Q04DX003 (ip), vehicle: alkali diluted with saline
  T/C: 155 % of control
endpoint: mean survival time, dose: 160.0 mg/kg/injection, schedule: Q01DX001 (ip), vehicle: alkali diluted with water
  T/C: 152 % of control
endpoint: mean survival time, dose: 160.0 mg/kg/injection, schedule: Q01DX005 (ip), vehicle: saline with Tween-80
  T/C: 175 % of control
endpoint: mean survival time, dose: 160.0 mg/kg/injection, schedule: Q01DX005 (ip), vehicle: saline
  T/C: 171 % of control
endpoint: mean survival time, dose: 160.0 mg/kg/injection, schedule: Q01DX009 (ip), vehicle: alkali diluted with saline
  T/C: 101 % of control
endpoint: mean survival time, dose: 160.0 mg/kg/injection, schedule: Q01DX009 (ip), vehicle: alkali diluted with water
  T/C: 114 % of control and 88 % of control
endpoint: mean survival time, dose: 160.0 mg/kg/injection, schedule: Q01DX009 (ip), vehicle: other
  T/C: 87 % of control
endpoint: mean survival time, dose: 165.0 mg/kg/injection, schedule: Q01DX001 (ip), vehicle: alkali diluted with saline
  T/C: 122 % of control
endpoint: mean survival time, dose: 180.0 mg/kg/injection, schedule: Q## X002 (ip), vehicle: saline
  T/C: 164 % of control
endpoint: mean survival time, dose: 180.0 mg/kg/injection, schedule: Q## X009 (ip), vehicle: saline
  T/C: 154 % of control
endpoint: mean survival time, dose: 270.0 mg/kg/injection, schedule: Q## X006 (ip), vehicle: saline
  T/C: 150 % of control
endpoint: mean survival time, dose: 270.0 mg/kg/injection, schedule: Q## X009 (ip), vehicle: saline
  T/C: 153 % of control
endpoint: median survival time, dose: 15.6 mg/kg/injection, schedule: Q01DX009 (ip), vehicle: alkali diluted with saline
  T/C: 116 % of control
endpoint: median survival time, dose: 18.0 mg/kg/injection, schedule: Q01DX009 (ip), vehicle: alkali diluted with saline
  T/C: 118 % of control
endpoint: median survival time, dose: 20.0 mg/kg/injection, schedule: Q01DX005 (ip), vehicle: water
  T/C: 187 % of control
endpoint: median survival time, dose: 25.0 mg/kg/injection, schedule: Q01DX009 (ip), vehicle: Klucel (hydroxypropylcellulose) (HPC)
  T/C: 182 % of control
endpoint: median survival time, dose: 25.0 mg/kg/injection, schedule: Q01DX009 (ip), vehicle: alkali diluted with water
  T/C: 122 % of control
endpoint: median survival time, dose: 25.9 mg/kg/injection, schedule: Q01DX009 (ip), vehicle: alkali diluted with saline
  T/C: 124 % of control
endpoint: median survival time, dose: 26.0 mg/kg/injection, schedule: Q01DX009 (ip), vehicle: Klucel (hydroxypropylcellulose) (HPC)
  T/C: 170 % of control
endpoint: median survival time, dose: 30.0 mg/kg/injection, schedule: Q01DX009 (ip), vehicle: alkali diluted with saline
  T/C: 121 % of control
endpoint: median survival time, dose: 37.5 mg/kg/injection, schedule: Q04DX003 (ip), vehicle: Klucel (hydroxypropylcellulose) (HPC)
  T/C: 154 % of control
endpoint: median survival time, dose: 40.0 mg/kg/injection, schedule: Q01DX005 (ip), vehicle: water
  T/C: 310 % of control
endpoint: median survival time, dose: 40.0 mg/kg/injection, schedule: Q01DX009 (ip), vehicle: Klucel (hydroxypropylcellulose) (HPC)
  T/C: 159 % of control
endpoint: median survival time, dose: 40.0 mg/kg/injection, schedule: Q01DX009 (ip), vehicle: alkali diluted with saline
  T/C: 123 % of control
endpoint: median survival time, dose: 50.0 mg/kg/injection, schedule: Q01DX009 (ip), vehicle: Klucel (hydroxypropylcellulose) (HPC)
  T/C: 259 % of control
endpoint: median survival time, dose: 50.0 mg/kg/injection, schedule: Q01DX009 (ip), vehicle: alkali diluted with water
  T/C: 164 % of control
endpoint: median survival time, dose: 50.0 mg/kg/injection, schedule: Q04DX003 (ip), vehicle: alkali diluted with saline
  T/C: 101 % of control
endpoint: median survival time, dose: 60.0 mg/kg/injection, schedule: Q01DX009 (ip), vehicle: alkali diluted with saline
  T/C: 173 % of control
endpoint: median survival time, dose: 60.0 mg/kg/injection, schedule: Q01DX009 (ip), vehicle: water
  T/C: 159 % of control
endpoint: median survival time, dose: 70.0 mg/kg/injection, schedule: Q01DX009 (ip), vehicle: alkali diluted with saline
  T/C: 151 % of control and 158 % of control
endpoint: median survival time, dose: 72.0 mg/kg/injection, schedule: Q01DX009 (ip), vehicle: alkali diluted with saline
  T/C: 150 % of control
endpoint: median survival time, dose: 75.0 mg/kg/injection, schedule: Q04DX003 (ip), vehicle: Klucel (hydroxypropylcellulose) (HPC)
  T/C: 176 % of control
endpoint: median survival time, dose: 78.0 mg/kg/injection, schedule: Q04DX003 (ip), vehicle: other
  T/C: 120 % of control
endpoint: median survival time, dose: 80.0 mg/kg/injection, schedule: Q01DX005 (ip), vehicle: Klucel (hydroxypropylcellulose) (HPC)
  T/C: 158 % of control
endpoint: median survival time, dose: 80.0 mg/kg/injection, schedule: Q01DX005 (ip), vehicle: water
  T/C: 164 % of control
endpoint: median survival time, dose: 80.0 mg/kg/injection, schedule: Q01DX009 (ip), vehicle: water
  T/C: 158 % of control
endpoint: median survival time, dose: 83.3 mg/kg/injection, schedule: Q01DX009 (ip), vehicle: alkali diluted with saline
  T/C: 160 % of control
endpoint: median survival time, dose: 100.0 mg/kg/injection, schedule: Q01DX001 (ip), vehicle: alkali diluted with saline
  T/C: 117 % of control and 122 % of control
endpoint: median survival time, dose: 100.0 mg/kg/injection, schedule: Q01DX001 (ip), vehicle: alkali diluted with water
  T/C: 157 % of control
endpoint: median survival time, dose: 100.0 mg/kg/injection, schedule: Q01DX005 (ip), vehicle: alkali diluted with water
  T/C: 172 % of control
endpoint: median survival time, dose: 100.0 mg/kg/injection, schedule: Q01DX009 (ip), vehicle: Klucel (hydroxypropylcellulose) (HPC)
  T/C: 211 % of control
endpoint: median survival time, dose: 100.0 mg/kg/injection, schedule: Q04DX003 (ip), vehicle: alkali diluted with saline
  T/C: 116 % of control
endpoint: median survival time, dose: 120.0 mg/kg/injection, schedule: Q01DX009 (ip), vehicle: alkali diluted with saline
  T/C: 154 % of control
endpoint: median survival time, dose: 150.0 mg/kg/injection, schedule: Q04DX003 (ip), vehicle: Klucel (hydroxypropylcellulose) (HPC)
  T/C: 178 % of control
endpoint: median survival time, dose: 160.0 mg/kg/injection, schedule: Q01DX005 (ip), vehicle: Klucel (hydroxypropylcellulose) (HPC)
  T/C: 164 % of control
endpoint: median survival time, dose: 200.0 mg/kg/injection, schedule: Q01DX005 (ip), vehicle: alkali diluted with water
  T/C: 89 % of control
endpoint: median survival time, dose: 200.0 mg/kg/injection, schedule: Q01DX009 (ip), vehicle: Klucel (hydroxypropylcellulose) (HPC)
  T/C: 154 % of control
endpoint: median survival time, dose: 200.0 mg/kg/injection, schedule: Q01DX009 (ip), vehicle: alkali diluted with water
  T/C: 88 % of control
endpoint: median survival time, dose: 200.0 mg/kg/injection, schedule: Q04DX003 (ip), vehicle: alkali diluted with saline
  T/C: 155 % of control
endpoint: median survival time, dose: 200.0 mg/kg/injection, schedule: Q04DX003 (ip), vehicle: other
  T/C: 475 % of control
endpoint: median survival time, dose: 400.0 mg/kg/injection, schedule: Q01DX009 (ip), vehicle: Klucel (hydroxypropylcellulose) (HPC)
  T/C: 152 % of control
endpoint: median survival time, dose: 600.0 mg/kg/injection, schedule: Q04DX003 (ip), vehicle: Klucel (hydroxypropylcellulose) (HPC)
  T/C: 194 % of control
